Data taken from publication PMC7464503, “Antioxidant and Antibacterial Properties of Carbosilane Dendrimers Functionalized with Polyphenolic Moieties” (Pharmaceutics, 2020).
In brackets after ≈: the same amount, converted by molar mass.

Tests used:
[1] = Cell viability by MTT assay; assay type: cell-based, human; conditions: human; for viability at 24 h, 16 ppm: HFF-1, 16 ppm; for viability at 24 h, 8 ppm: HFF-1, 8 ppm
Experimental: (§1) HFF-1 cells were grown routinely in DMEM (Dulbecco’s modified Eagle’s medium, Sigma Aldrich, St. Louis, MO, USA, ref. D6429) supplemented with 10% fetal bovine serum (FBS, Sigma Aldrich, ref. F7524) and 1% penicillin/streptomycin/amphotericin B (Sigma Aldrich, ref. A5955) at 37 °C and 5% CO2. Cells were seeded in 96-well plates (Nunclon Delta Surface, Thermo Fischer Scientific, Waltham, MA, USA; 8 × 10^3 cells per well) and grown in a complete DMEM medium for 24 h. Cell viability was determined by MTT assay (MTT, 3-(4,5-dimethyl-2-thiazolyl)-2,5-diphenyl-2H-tetrazolium bromide). A stock compound solution was prepared in DMSO. Then, dilutions in cell culture were made to obtain the final concentrations with 1% of DMSO per well. […] After incubation, MTT was added at a concentration of 5 mg/mL and plates were incubated for 3 h. Finally, the culture medium was removed and the purple formazan crystals formed by the mitochondrial dehydrogenase and reductase activity of vital cells were dissolved in DMSO. The optical density, directly proportional to the number of surviving cells, was quantified at 570/630 nm in a spectrophotometer BioTEK 800 (Izasa). The assay was carried out in triplicate, with eight different wells for each concentration and with different controls (culture medium and DMSO).

[2] = Cyclic voltammetry, electrochemical characterization of the antioxidant capacity; assay type: physicochemical; conditions: for Ep (peak potential) / Ip (peak intensity) / ΔEp (difference between anodic and cathodic peak): glassy carbon electrode, ± SD of three measurements; for Ep (peak potential): 20 mM acetate buffer pH 3.6, vs Ag|AgCl|KCl (3M); for Ip (peak intensity) / ΔEp (difference between anodic and cathodic peak): 20 mM acetate buffer pH 3.6
Experimental: Electrochemical measurements were carried out on an Autolab PGSTAT 12 potentiostat from Metrohm (Utrecht, The Netherlands), employing a glassy carbon (GC) disk working electrode. The GC electrode was polished after each measurement using a 0.1 and 0.05 µm alumina/water slurry until a shiny mirror-like finish was achieved, and washed with ultrapure water. Electrodes were modified with 1 mM solutions of each compound (L, G1, and G2) in MeOH; 5 µL drops were drop-cast in the electrode and allowed to dry before the measurements. Electrochemical measurements were performed in a 20 mM acetate buffer solution (pH 3.6), employing an Ag|AgCl|KCl (3M) reference electrode and a platinum wire as a counterelectrode.
Electrochemical characterization of the antioxidant capacity: The electrochemical behavior of the synthesized polyphenolic dendrimers (1–6), together with the free polyphenol (L), has been investigated using cyclic voltammetry (CV). CV is a powerful electrochemical technique that can be employed to study the ability of a molecule to undergo electron transfer and to estimate the antioxidant activity through the peak potential (Ep), intensity (ip), and reversibility (ΔEp). A lowering in the Ep or ΔEp and an increase in the ip are indicative of higher antioxidant activity.

[3] = system: Escherichia coli (CECT 515); experiment: In vitro antibacterial activity (ISO 20776-1:2006), turbidity at 625 nm; assay type: cell-based; conditions: CECT515, E. coli, 24 h at 37 °C, 1% DMSO, tested up to 16 ppm, read-out: MIC50
Experimental: (§2) In vitro antibacterial analysis of dendritic polyphenols was performed following the international standard method ISO 20776-1:2006 [22]. The antibacterial activity was assayed in two different bacteria, Escherichia coli (CECT 515) and Staphylococcus aureus (CECT 240), both obtained from the Spanish Type Culture Collection in lyophilized form. The biocide solutions were prepared following the EUCAST (European Committee for Antimicrobial Susceptibility Testing) protocol for hydrophobic compounds. For this purpose, stock solutions in DMSO of each compound were made and then, subsequent dilutions in Mueller-Hinton […] (Scharlau, ref. 02–136) were developed to obtain the testing concentrations (from 0.0312 ppm to 16 ppm) with 1% of DMSO. The assay was carried out in 96-well plates, with two different wells for each concentration and with different controls (biocide, inoculum, culture medium, and DMSO). The bacteria were inoculated at a concentration of 10^5 CFU/mL in wells. After 24 h of incubation with biocides at 37 °C, the increase of turbidity at 625 nm was determined using an Ultra Microplate reader (BIO-TECK Instruments, model ELx808). MIC50 and MIC80 values were the concentrations of the compounds with an optical density of 50% and 20% compared to nontreated bacteria.

[4] = system: Staphylococcus aureus (CECT 240); experiment: as above; assay type: cell-based; conditions: CECT240, S. aureus, 24 h at 37 °C, 1% DMSO, tested up to 16 ppm; for IC50: read-out: MIC50; for IC80: read-out: MIC80
Experimental: as §2

[5] = DPPH free radical-scavenging assay; conditions: stated as the same activity as the cited polyether dendrimers
Experimental: This method involves the radical concentration reduction by the antioxidant agent, which entails absorbance reduction and increasing compound concentration. When antioxidants are mixed with DPPH solution, the color turns from purple to yellow, with the maximum absorption at 530 nm. The ability of dendritic polyphenols to scavenge the DPPH radical was evaluated. An aliquot of 100 µL of different stock sample concentrations in the range of 0.01 and 100 µM in methanol was added to a volume of 900 µL of a DPPH stock solution (0.12 mM) in a DMSO/H2O (1:1) mixture. The mixture was shaken, kept in the dark at room temperature, and recorded at 530 nm every 5 min up to 30 min. The blank was constituted by methanol instead of the sample.
The IC50 of DPPH scavenging activity and EC50 of FRAP capacities were calculated following similar protocols. Firstly, for each concentration, it was necessary to calculate the DPPH remnant, as well as the Fe(II) that formed, through the following equations: 1. DPPHREM(%)=(As/Ac)×100 2. Fe(II)FOR(%)=(As−Ac/Ac)×100 where REM = remnant, FOR = formed, As = Sample absorbance, and Ac = Control absorbance. The graphical representation of the percentage of the remnant or formed reagent versus the −log[X] […] The results are expressed as mean ± SEM and are representative of at least three independent experiments.

[6] = system: HFF-1 cells; experiment: Cell viability by MTT assay; assay type: cell-based, human; conditions: HFF-1, 16 ppm, 24 h
Experimental: as §1

[7] = G2 compared to free polyphenol L

Row | SMILES | viability at 24 h, 16 ppm [1] | Ep (peak potential) [2] | Ip (peak intensity) [2] | IC50 [3] | IC50 [4] | IC80 [4] | viability at 24 h, 8 ppm [1] | ΔEp (difference between anodic and cathodic peak) [2] | IC50 [5] | viability at 24 h, 4 ppm ([1]; HFF-1, 4 ppm) | % Viability [6] | decrease in the Ep compared to L [2, 7] | decrease in ΔEp compared to L [2, 7]
1 | COc1cc(/C=C/C(=O)NCCC[Si](C)(C)CCC[Si](CCC[Si](C)(C)CCCNC(=O)/C=C/c2ccc(O)c(OC)c2)(CCC[Si](C)(C)CCCNC(=O)/C=C/c2ccc(O)c(OC)c2)CCC[Si](C)(C)CCCNC(=O)/C=C/c2ccc(O)c(OC)c2)ccc1O [G1 (1), G1-[Si(CH2)3NH(CO)CH=CHCH2Ph(OH)(OCH3))]4] | 95.4 ± 6.6% | 0.637 ± 0.002 V | 0.75 ± 0.06 µA | > 16 µg/mL | > 16 µg/mL | > 16 µg/mL |  |  |  |  |  |  | 
2 | C[Si](C)(CCCNC(=O)/C=C/c1ccc(O)c(O)c1)CCC[Si](CCC[Si](C)(C)CCCNC(=O)/C=C/c1ccc(O)c(O)c1)(CCC[Si](C)(C)CCCNC(=O)/C=C/c1ccc(O)c(O)c1)CCC[Si](C)(C)CCCNC(=O)/C=C/c1ccc(O)c(O)c1 [G1 (2), G1-[Si(CH2)3NH(CO)CH=CHCH2Ph(OH)2)]4] | 100% | 0.276 ± 0.009 V | 1.39 ± 0.04 µA | > 16 µg/mL | 8 µg/mL (≈ 6.11 µM) | 16 µg/mL (≈ 12.2 µM) | 98.8 ± 1.7% | 0.188 ± 0.006 V | ~5 µM |  |  |  | 
3 | C[Si](C)(CCCNC(=O)c1cc(O)c(O)c(O)c1)CCC[Si](CCC[Si](C)(C)CCCNC(=O)c1cc(O)c(O)c(O)c1)(CCC[Si](C)(C)CCCNC(=O)c1cc(O)c(O)c(O)c1)CCC[Si](C)(C)CCCNC(=O)c1cc(O)c(O)c(O)c1 [G1 (3), G1-[Si(CH2)3NH(CO)Ph(OH)3]4] |  | 0.410 ± 0.008 V | 4.12 ± 0.07 µA | 16 µg/mL (≈ 12.6 µM) | 4 µg/mL (≈ 3.15 µM) | 8 µg/mL (≈ 6.3 µM) | 99.1 ± 1% |  |  | 84.8 ± 7.5% |  |  | 
4 | COc1cc(C=CC(=O)O)ccc1O [Ferulic L, 3-(4-hydroxy-3-methoxyphenyl)-2-propenoic acid, reference compound] |  | 0.686 ± 0.009 V | 3.70 ± 0.08 µA | > 16 µg/mL | > 16 µg/mL | > 16 µg/mL |  |  |  |  |  |  | 
5 | O=C(O)c1cc(O)c(O)c(O)c1 [Gallic L, 3,4,5-trihydroxybenzoic acid, reference compound] |  | 0.477 ± 0.001 V | 3.87 ± 0.08 µA | > 16 µg/mL | > 16 µg/mL | > 16 µg/mL |  |  |  |  |  |  | 
6 | COc1cc(/C=C/C(=O)NCCC[Si](C)(C)CCC[Si](C)(CCC[Si](C)(C)CCCNC(=O)/C=C/c2ccc(O)c(OC)c2)CCC[Si](CCC[Si](C)(CCC[Si](C)(C)CCCNC(=O)/C=C/c2ccc(O)c(OC)c2)CCC[Si](C)(C)CCCNC(=O)/C=C/c2ccc(O)c(OC)c2)(CCC[Si](C)(CCC[Si](C)(C)CCCNC(=O)/C=C/c2ccc(O)c(OC)c2)CCC[Si](C)(C)CCCNC(=O)/C=C/c2ccc(O)c(OC)c2)CCC[Si](C)(CCC[Si](C)(C)CCCNC(=O)/C=C/c2ccc(O)c(OC)c2)CCC[Si](C)(C)CCCNC(=O)/C=C/c2ccc(O)c(OC)c2)ccc1O [G2 (4), G2-[Si(CH2)3NH(CO)CH=CHCH2Ph(OH)(OCH3))]8] |  | 0.613 ± 0.008 V | 0.56 ± 0.02 µA | > 16 µg/mL | > 16 µg/mL | > 16 µg/mL |  |  |  |  | 92.9 ± 7.4% | 73 mV | 
7 | C[Si](C)(CCCNC(=O)/C=C/c1ccc(O)c(O)c1)CCC[Si](C)(CCC[Si](C)(C)CCCNC(=O)/C=C/c1ccc(O)c(O)c1)CCC[Si](CCC[Si](C)(CCC[Si](C)(C)CCCNC(=O)/C=C/c1ccc(O)c(O)c1)CCC[Si](C)(C)CCCNC(=O)/C=C/c1ccc(O)c(O)c1)(CCC[Si](C)(CCC[Si](C)(C)CCCNC(=O)/C=C/c1ccc(O)c(O)c1)CCC[Si](C)(C)CCCNC(=O)/C=C/c1ccc(O)c(O)c1)CCC[Si](C)(CCC[Si](C)(C)CCCNC(=O)/C=C/c1ccc(O)c(O)c1)CCC[Si](C)(C)CCCNC(=O)/C=C/c1ccc(O)c(O)c1 [G2 (5), G2-[Si(CH2)3NH(CO)CH=CHCH2Ph(OH)2)]8] |  | 0.302 ± 0.010 V | 0.143 ± 0.09 µA | > 16 µg/mL | > 16 µg/mL | > 16 µg/mL |  | 0.120 ± 0.009 V |  |  | 100.0 ± 0.0% |  | 85 mV
8 | O=C(O)/C=C/c1ccc(O)c(O)c1 [Caffeic L, reference compound] |  | 0.263 ± 0.005 V | 2.91 ± 0.07 µA | > 16 µg/mL | > 16 µg/mL | > 16 µg/mL |  | 0.205 ± 0.002 V |  |  |  |  | 
